Assay results reported in the NIST ThermoML archive (doi:10.1016/j.jct.2009.05.001).

Assay: xn = mol fraction of the nth substance listed
Conditions: 101 kPa, Liquid; for speed of sound: Sing-around technique in a fixed-path interferometer; for mass density: Vibrating tube method

ClCCCl [1,2-dichloroethane] + CCCCCCO
Conditions	mass density, 308.15 K [kg/m3]	mass density, 313.15 K [kg/m3]	speed of sound, 308.15 K [m/s]	speed of sound, 313.15 K [m/s]
x1 = 0.037	817.675	813.926	1262.4	1246.1
x1 = 0.0769	828.456	824.595	1254.6	1238.5
x1 = 0.1499	848.617	844.565	1240.1	1223.2
x1 = 0.2147	867.202	863.005	1226.8	1210.1
x1 = 0.2935	891.704	887.346	1212.5	1195.8
x1 = 0.3952	926.131	921.594	1195.1	1177.8
x1 = 0.4532	947.081	942.428	1185.4	1167.5
x1 = 0.5596	988.685	983.815	1169.3	1151.5
x1 = 0.6113	1010.54	1005.54	1162	1144.6
x1 = 0.6971	1049.83	1044.5	1153.5	1135.8
x1 = 0.7791	1091.94	1086.13	1148.8	1131.2
x1 = 0.8563	1135.2	1128.8	1148	1129
x1 = 0.9335	1184.46	1177.4	1151.1	1128.9
x1 = 0.979	1215.34	1207.97	1152.8	1132.9
x1 = 1	1230.88	1223.41	1155.3	1136.2

BrCCBr [1,2-dibromoethane] + CCCCCCO
Conditions	mass density, 308.15 K [kg/m3]	mass density, 313.15 K [kg/m3]	speed of sound, 308.15 K [m/s]	speed of sound, 313.15 K [m/s]
x1 = 0.0402	845.2	841.335	1246.8	1230.7
x1 = 0.0682	871.58	867.573	1231.5	1215.3
x1 = 0.1276	929.152	924.828	1200.8	1184.8
x1 = 0.2056	1008.3	1003.54	1163.8	1148.2
x1 = 0.2686	1075.32	1070.19	1136.5	1121.2
x1 = 0.3892	1211.59	1205.72	1090.4	1075.6
x1 = 0.4277	1258.28	1252.15	1077	1062.5
x1 = 0.5444	1406.53	1399.6	1041.2	1027.1
x1 = 0.6405	1539.27	1531.62	1016.5	1003
x1 = 0.7326	1676.75	1668.38	996.88	983.86
x1 = 0.8519	1871.88	1862.55	978.58	966.15
x1 = 0.9273	2006.87	1996.95	971.93	959.29
x1 = 0.9587	2066.14	2055.98	970.13	957.92
x1 = 0.9782	2104.45	2094.14	969.05	956.68
x1 = 1	2148.2	2137.69	968.69	956.08
